The values below come from patent US4499303A, “Antihyperlipidemic N-benzoylsulfamates, N-benzylsulfamates and benzylsulfonamides” (Research Corporation, priority 1983, dated 1985).

“Also recorded” adds a separate entry of the source. Where two headings read alike, the source gives them in different places.

Type in all cases: in vivo
The test system of one assay is Serum Triglycerides. Briefly: Antihyperlipidemic effect in CF1 male mice: serum triglycerides. The following applies: for response vs control in vivo at 20 mg/kg: Mus musculus, ip, 384 h; for response vs control in vivo at 20 mg/kg / Serum Triglycerides, Day 16: 20 mg/kg/day I.P., CF1 male mice, N = 6, Day 16; for antihypertriglyceridemic activity (in words): mice, compared with others of Table I. On the procedure:
Serum triglycerides were assayed using the commercially available Bio-Dynamics/bmc Triglyceride Kit on blood collected on the 16th day. By comparison to standards, the mg% of cholesterol and mg/dl of triglycerides were calculated. Treated values are expressed as percent of control.

For assay [1], the system named is Serum Cholesterol. As to the kind of experiment: Antihyperlipidemic effect in CF1 male mice: serum cholesterol. The following applies: for response vs control in vivo at 20 mg/kg: Mus musculus, ip; for antihypercholesteremic activity (in words): mice, compared with others of Table I.
Assay [2] concerns normal and hyperlipidemic mice. As to the kind of experiment: Hypolipidemic effect in normal and hyperlipidemic mice, oral and intraperitoneal. The following applies: orally and intraperitoneally.
Assay [3] relates to serum cholesterol. Briefly: Hypolipidemic effect in rodents at 60 mg/kg/day: serum cholesterol. The source says:
Of the series of compounds tested thus far, N-(p-chlorobenzoyl)-sulfamate and (o-chlorobenzyl)-sulfonamide appear to be of the most interest. […]

The next assay has as its system triglyceride levels. As to the kind of experiment: Hypolipidemic effect in rodents at 60 mg/kg/day: triglycerides. On the procedure:
Of the series of compounds tested thus far, N-(p-chlorobenzoyl)-sulfamate and (o-chlorobenzyl)-sulfonamide appear to be of the most interest. N-(p-chlorobenzoyl)-sulfamic acid sodium salt at 20 mg/kg/day, I.P. lowered serum cholesterol levels 48% and serum triglyceride levels 45% after 16 days dosing.

[4] abbreviates: 216 h, 20 mg/kg/day I.P., CF1 male mice, N = 6, Day 9, read-out: Serum Cholesterol, Day 9.
[5] abbreviates: 384 h, 20 mg/kg/day I.P., CF1 male mice, N = 6, Day 16, read-out: Serum Cholesterol, Day 16.
Setting [6] is: 20 mg/kg/day, I.P., after 16 days dosing, lowering.

As for `O=C(NS(=O)(=O)O)c1cccc(Cl)c1` [Compound 3], the values for the response vs control in vivo at 20 mg/kg in the assay on Serum Triglycerides, in the assay on Serum Cholesterol [1] (setting [4]) and in the assay on Serum Cholesterol [1] (setting [5]) were 97 ± 7%, 72 ± 5% and 64 ± 6%, respectively. In addition, the “antihypertriglyceridemic activity (in words)” value in the assay on Serum Triglycerides was “less active in lowering triglyceride levels”. The “antihypercholesteremic activity (in words)” value in the assay on Serum Cholesterol [1] is reported as “more active than saccharin in lowering serum cholesterol levels”.

Turning to `CC(C)c1ccc(C(=O)NS(=O)(=O)O)cc1` [Compound 11], in the assay on Serum Triglycerides (listed as p-isopropyl derivative), the “Serum Triglycerides, Day 16” value is given as 49±8 % Control. Also, the response vs control in vivo at 20 mg/kg with Serum Triglycerides worked out at 49 ± 8%; with Serum Cholesterol [1] (setting [4]), 90 ± 6%; in the assay with Serum Cholesterol [1] (setting [5]), 77 ± 6%.

Regarding `O=S(=O)(O)NCc1ccccc1Cl` [Compound 14], the response vs control in vivo at 20 mg/kg in the assay with Serum Triglycerides is 75 ± 2%; in the assay on Serum Cholesterol [1] (setting [4]), 84 ± 8%; with Serum Cholesterol [1] (setting [5]), 78 ± 2%. The “antihypertriglyceridemic activity (in words)” value in the assay on Serum Triglycerides was “increased antihyertriglyceridemic activity compared to N-benzoylsulfamate 4”.

Take `COc1ccc(CS(N)(=O)=O)cc1` [Compound 19]: the response vs control in vivo at 20 mg/kg is 76 ± 7% in the assay with Serum Triglycerides, 74 ± 8% with Serum Cholesterol [1] (setting [4]) and 70 ± 5% in the assay with Serum Cholesterol [1] (setting [5]).

Consider `Cc1ccc(C(=O)NS(=O)(=O)O)cc1` [Compound 9], for which the response vs control in vivo at 20 mg/kg with Serum Triglycerides came out at 82 ± 4%; in the assay with Serum Cholesterol [1] (setting [4]), 70 ± 3%; with Serum Cholesterol [1] (setting [5]), 63 ± 3%.

As to `CC(=O)c1ccc(C(=O)NS(=O)(=O)O)cc1` [Compound 10], the response vs control in vivo at 20 mg/kg worked out at 69 ± 6% in the assay on Serum Triglycerides, 95 ± 3% in the assay on Serum Cholesterol [1] (setting [4]) and 72 ± 4% in the assay on Serum Cholesterol [1] (setting [5]).

For `NS(=O)(=O)Cc1ccccc1` [Compound 20], in the assay on Serum Triglycerides, the “Serum Triglycerides, Day 16” value turned out to be 42 % Control. Besides, the response vs control in vivo at 20 mg/kg amounted to 42 ± 3% in the assay with Serum Triglycerides, 95 ± 8% in the assay with Serum Cholesterol [1] (setting [4]) and 75 ± 5% with Serum Cholesterol [1] (setting [5]). Moreover, the “antihypertriglyceridemic activity (in words)” value with Serum Triglycerides was “more active than saccharin; also recorded: the most active antihypertriglyceridemics in the series”.

On to `O=C(NS(=O)(=O)[O-])c1ccc(Cl)cc1.[Na+]` [Compound 2, N-(p-chlorobenzoyl)-sulfamic acid sodium salt], for which the “Serum Triglycerides, Day 16” value with Serum Triglycerides (listed as p--Cl, sodium salt) came out at 55±7 % Control. Further, the “lowered serum triglyceride levels” value with Serum Triglycerides (setting [6]) was 45%. In addition, the response vs control in vivo at 20 mg/kg amounted to 55 ± 7% in the assay with Serum Triglycerides; 57 ± 5% in the assay with Serum Cholesterol [1] (setting [4]); 52 ± 6% in the assay on Serum Cholesterol [1] (384 h, read-out: Serum Cholesterol, Day 16). Besides, in the assay with Serum Triglycerides, the “antihypertriglyceridemic activity (in words)” value is recorded as “less active in lowering triglyceride levels”. Besides, the “lowered serum cholesterol levels” value in the assay with Serum Cholesterol [1] (setting [6]) was 48%. In addition, in the assay with Serum Cholesterol [1], the “antihypercholesteremic activity (in words)” value is on record as “more active than saccharin in lowering serum cholesterol levels”.

`NS(=O)(=O)Cc1cccc(Cl)c1` [Compound 21]: the values for the response vs control in vivo at 20 mg/kg in the assay on Serum Triglycerides, in the assay on Serum Cholesterol [1] (setting [4]) and in the assay on Serum Cholesterol [1] (setting [5]) were 71 ± 5%, 92 ± 7% and 77 ± 5%, respectively.

Consider `O=C1NS(=O)(=O)c2ccccc21` [Saccharin, reference compound], for which the response vs control in vivo at 20 mg/kg in the assay with Serum Triglycerides came out at 48 ± 6%; with Serum Cholesterol [1] (setting [4]), 77 ± 6%; with Serum Cholesterol [1] (setting [5]) it was 68 ± 7%.

In the case of `O=S(=O)(O)NCc1ccc(Cl)cc1` [Compound 15], the response vs control in vivo at 20 mg/kg with Serum Triglycerides stood at 79 ± 7%; in the assay on Serum Cholesterol [1] (setting [4]) it was 94 ± 2%; with Serum Cholesterol [1] (setting [5]), 93 ± 4%.

Consider `O=C(NS(=O)(=O)O)c1ccc(Br)cc1` [Compound 8], for which the response vs control in vivo at 20 mg/kg in the assay on Serum Triglycerides amounted to 88 ± 3%; with Serum Cholesterol [1] (setting [4]), 75 ± 4%; in the assay on Serum Cholesterol [1] (setting [5]) it was 73 ± 7%.

With `NS(=O)(=O)Cc1ccccc1Cl` [Compound 16, (o-Chlorobenzyl)sulfonamide], the “hypolipidemic activity (in words)” value in assay [2] was “effective both in normal and hyperlipidemic mice and is active both orally an intraperitonally”. Moreover, the response vs control in vivo at 20 mg/kg in the assay with Serum Triglycerides came out at 52 ± 6%; in the assay on Serum Cholesterol [1] (setting [4]), 99 ± 8%; in the assay on Serum Cholesterol [1] (setting [5]), 73 ± 6%. Further, the “antihypertriglyceridemic activity (in words)” value with Serum Triglycerides is “the most active antihypertriglyceridemics in the series”. For the same molecule, the “hypolipidemic agent in rodents (in words)” value with serum cholesterol [3] is “potent hypolipidemic agent in rodents”. Further, in the assay with serum cholesterol [3] (60/mg/kg/day), the “reducing serum cholesterol levels” value came out at 71%. The molecule also came in with a reducing triglyceride levels with triglyceride levels of 49%.

In the case of `COc1ccc(C(=O)NS(=O)(=O)O)cc1` [Compound 1], the response vs control in vivo at 20 mg/kg turned out to be 65 ± 8% with Serum Triglycerides, 63 ± 6% with Serum Cholesterol [1] (setting [4]) and 60 ± 7% in the assay on Serum Cholesterol [1] (setting [5]). Also, the “antihypertriglyceridemic activity (in words)” value in the assay on Serum Triglycerides is reported as “less active in lowering triglyceride levels”. In addition, the “antihypercholesteremic activity (in words)” value with Serum Cholesterol [1] is “more active than saccharin in lowering serum cholesterol levels”.

Turning to `NS(=O)(=O)Cc1ccc(Cl)cc1` [Compound 22], the response vs control in vivo at 20 mg/kg in the assay on Serum Triglycerides is 48 ± 4%; in the assay on Serum Cholesterol [1] (setting [4]), 94 ± 7%; in the assay with Serum Cholesterol [1] (setting [5]) it was 78 ± 8%. Also, the “antihypertriglyceridemic activity (in words)” value with Serum Triglycerides is reported as “equally active with saccharin; also recorded: the most active antihypertriglyceridemics in the series”.

Regarding `COc1ccc(CNS(=O)(=O)O)cc1` [Compound 12], the response vs control in vivo at 20 mg/kg with Serum Triglycerides is 91 ± 9%; in the assay with Serum Cholesterol [1] (setting [4]) it was 88 ± 4%; in the assay with Serum Cholesterol [1] (setting [5]), 87 ± 2%.

As for `O=C(NS(=O)(=O)O)c1ccccc1Cl` [Compound 4], the response vs control in vivo at 20 mg/kg in the assay on Serum Triglycerides is 86 ± 8%; with Serum Cholesterol [1] (setting [4]) it was 78 ± 6%; with Serum Cholesterol [1] (setting [5]), 51 ± 5%. Besides, in the assay on Serum Triglycerides, the “antihypertriglyceridemic activity (in words)” value is listed as “less active in lowering triglyceride levels”. The “antihypercholesteremic activity (in words)” value in the assay with Serum Cholesterol [1] is “more active than saccharin in lowering serum cholesterol levels”.

With `O=C(NS(=O)(=O)O)c1ccccc1` [Compound 7], the figures for the response vs control in vivo at 20 mg/kg with Serum Triglycerides, with Serum Cholesterol [1] (setting [4]) and in the assay on Serum Cholesterol [1] (setting [5]) were 70 ± 6%, 74 ± 6% and 57 ± 5%, respectively. Also, the “antihypertriglyceridemic activity (in words)” value in the assay with Serum Triglycerides is “less active in lowering triglyceride levels”. In addition, the “antihypercholesteremic activity (in words)” value is listed as “more active than saccharin in lowering serum cholesterol levels” with Serum Cholesterol [1] and “quite active” in the assay on Serum Cholesterol [1] (listed as unsubstituted prototype).

Regarding `COc1ccccc1CS(N)(=O)=O` [Compound 17], the values for the response vs control in vivo at 20 mg/kg with Serum Triglycerides, in the assay on Serum Cholesterol [1] (setting [4]) and with Serum Cholesterol [1] (setting [5]) were 58 ± 6%, 69 ± 4% and 68 ± 7%, respectively. Moreover, the “antihypercholesteremic activity (in words)” value with Serum Cholesterol [1] was “the most active antihypercholesteremic, being equal in activity to saccharin”.

As for `COc1cccc(C(=O)NS(=O)(=O)O)c1` [Compound 5], the response vs control in vivo at 20 mg/kg is 80 ± 7% in the assay on Serum Triglycerides, 86 ± 7% with Serum Cholesterol [1] (setting [4]) and 72 ± 5% in the assay on Serum Cholesterol [1] (setting [5]).

Take `COc1cccc(CS(N)(=O)=O)c1` [Compound 18]: the “Serum Triglycerides, Day 16” value in the assay on Serum Triglycerides is given as 42 % Control. Besides, the response vs control in vivo at 20 mg/kg in the assay with Serum Triglycerides was 42 ± 4%; in the assay on Serum Cholesterol [1] (setting [4]), 84 ± 6%; in the assay on Serum Cholesterol [1] (setting [5]), 79 ± 7%. Also, in the assay with Serum Triglycerides, the “antihypertriglyceridemic activity (in words)” value is listed as “more active than saccharin; also recorded: the most active antihypertriglyceridemics in the series”.

With `O=S(=O)(O)NCc1ccccc1` [Compound 13], the results for the response vs control in vivo at 20 mg/kg in the assay on Serum Triglycerides, in the assay on Serum Cholesterol [1] (setting [4]) and in the assay with Serum Cholesterol [1] (setting [5]) were 97 ± 8%, 94 ± 7% and 88 ± 2%, respectively.

Consider `CCOC(=O)C(C)(C)Oc1ccc(Cl)cc1` [Clofibrate, reference compound], for which the response vs control in vivo at 20 mg/kg in the assay on Serum Triglycerides was found to be 95 ± 7%; in the assay on Serum Cholesterol [1] (setting [4]), 98 ± 7%; in the assay with Serum Cholesterol [1] (setting [5]), 97 ± 9%.
